According to PMC1082716, “Blockade of chemokine-induced signalling inhibits CCR5-dependent HIV infection in vitro without blocking gp120/CCR5 interaction” (Retrovirology, 2005):
Entries after “also recorded” stand apart in the source; their conditions may differ.

Key:
[1] = tested on: CXCR4-dependent infection of Jurkat T cells; assay: CXCR4-dependent HIV infection of Jurkat T cells (assay not specified); type: cell-based, HIV-1
Procedure: HIV infection of Jurkat T-cells using the laboratory-adapted T-tropic isolate IIIb was monitored using two different assays. Firstly, Jurkat T-cells in 96-well plates were pre-treated with either Peptide 3, vehicle (as a negative control) or SDF1α (as a positive control) for 4 hours, then exposed to HIV virus (10^6 TCID50) and pulsed at 2–3 day intervals with Peptide 3, SDF1α or medium alone as appropriate. After two weeks in culture, the extent of viral infection was assayed by measuring the reverse transcriptase activity in the supernatant, as a measure of viral replication in the culture In six separate experiments, Peptide 3 (100 μM) had no effect on virus replication following HIV exposure (Fig 3a), while SDF1α inhibited reverse transcriptase activity by an average of 75%. […]
HIV infection of Jurkat T-cells was also monitored by high sensitivity quantitative immunofluoresence detection of viral p24^gag expression. […] Expression of p24^gag was determined using quantitative immunofluoresence as previously described, except that the primary antibody was post-fixed to the section using paraformaldehyde to increase the sensitivity of the technique (see Methods). Viral infectivity was expressed as the number of cells stained for p24^gag expressed as a proportion of the total number of cells (detected using Hoechst 33342 nuclear dye). […]

CXCR4 = molecular target: T1, CXCR4 (Homo sapiens, UniProt P61073); assay: Specific binding of biotinylated gp120:V3(IIIb) peptide to Jurkat cells; conditions: 100 μM biotinylated gp120:V3(IIIb); various concentrations of inhibitor; 10^6 cells in 100 μl, 4°C; triplicate
T1 construct: CXCR4, which is expressed on both THP-1 and Jurkat cells, but at higher levels on the T-cell line; endogenous in cells; host or cells: Jurkat T-cells (whole cells, 10^6 per well, 4°C)

HIV (IIIb) = HIV (IIIb) infection of Jurkat T-cells, p24gag immunofluorescence; type: cell-based; conditions: Peptide 3 100 μM, approximately 48 h after infection
Procedure: HIV infection of Jurkat T-cells was also monitored by high sensitivity quantitative immunofluoresence detection of viral p24^gag expression. Jurkat cells were infected with HIV in the presence or absence of Peptide 3 (100 μM) or SDF1α (100 ng/ml) as described above. Approximately 48 h after infection, the cells were attached to glass slides using a cytospin and then fixed by immersion in ice-cold 70% ethanol for 90 seconds. Expression of p24^gag was determined using quantitative immunofluoresence as previously described, except that the primary antibody was post-fixed to the section using paraformaldehyde to increase the sensitivity of the technique (see Methods). Viral infectivity was expressed as the number of cells stained for p24^gag expressed as a proportion of the total number of cells (detected using Hoechst 33342 nuclear dye). […]
Jurkat cells following HIV infection were attached to 8-well chamber slides (Becton-Dickinson) by spinning the slides using a plate rotor in a Labofuge centrifuge (Heraeus) at 3,000 × g for 5 minutes. […] A threshold was then applied to each image which was the lowest threhold that detected <1% of the pixels of an image of uninfected cells stained under identical conditions. The number of objects exceeding this threshold in each field of view were counted. […]

T1 sequence (P61073 whole entry): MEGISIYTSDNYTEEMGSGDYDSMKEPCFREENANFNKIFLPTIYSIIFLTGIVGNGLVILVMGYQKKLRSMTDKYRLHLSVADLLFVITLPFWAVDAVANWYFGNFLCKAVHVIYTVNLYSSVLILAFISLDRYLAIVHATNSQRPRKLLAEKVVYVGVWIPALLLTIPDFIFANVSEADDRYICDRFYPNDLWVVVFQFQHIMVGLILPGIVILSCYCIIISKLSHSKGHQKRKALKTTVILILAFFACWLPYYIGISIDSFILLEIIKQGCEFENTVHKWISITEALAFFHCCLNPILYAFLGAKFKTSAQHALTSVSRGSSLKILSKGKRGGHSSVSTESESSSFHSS

Sequence: EICADPKQKWVQ [Peptide 3]
- Effect on CXCR4-dependent HIV infection of Jurkat T cells [1]: did not affect; also recorded: no effect
- Effect on binding of gp120:V3(IIIb) to Jurkat cells (CXCR4): no effect
- Effect on viral infectivity (p24gag, in words) (HIV (IIIb)): no effect
